Experimental data from ChEMBL document CHEMBL5653615 (J Biol Chem, 2013).

What was measured:
[1] = target: T1, Serine/threonine-protein kinase TAO1 (Homo sapiens) (UniProt Q7L7X3); assay: Inhibition of human TAOK1 at 18.6 nM by HotSpot assay relative to control
T1 sequence (whole entry): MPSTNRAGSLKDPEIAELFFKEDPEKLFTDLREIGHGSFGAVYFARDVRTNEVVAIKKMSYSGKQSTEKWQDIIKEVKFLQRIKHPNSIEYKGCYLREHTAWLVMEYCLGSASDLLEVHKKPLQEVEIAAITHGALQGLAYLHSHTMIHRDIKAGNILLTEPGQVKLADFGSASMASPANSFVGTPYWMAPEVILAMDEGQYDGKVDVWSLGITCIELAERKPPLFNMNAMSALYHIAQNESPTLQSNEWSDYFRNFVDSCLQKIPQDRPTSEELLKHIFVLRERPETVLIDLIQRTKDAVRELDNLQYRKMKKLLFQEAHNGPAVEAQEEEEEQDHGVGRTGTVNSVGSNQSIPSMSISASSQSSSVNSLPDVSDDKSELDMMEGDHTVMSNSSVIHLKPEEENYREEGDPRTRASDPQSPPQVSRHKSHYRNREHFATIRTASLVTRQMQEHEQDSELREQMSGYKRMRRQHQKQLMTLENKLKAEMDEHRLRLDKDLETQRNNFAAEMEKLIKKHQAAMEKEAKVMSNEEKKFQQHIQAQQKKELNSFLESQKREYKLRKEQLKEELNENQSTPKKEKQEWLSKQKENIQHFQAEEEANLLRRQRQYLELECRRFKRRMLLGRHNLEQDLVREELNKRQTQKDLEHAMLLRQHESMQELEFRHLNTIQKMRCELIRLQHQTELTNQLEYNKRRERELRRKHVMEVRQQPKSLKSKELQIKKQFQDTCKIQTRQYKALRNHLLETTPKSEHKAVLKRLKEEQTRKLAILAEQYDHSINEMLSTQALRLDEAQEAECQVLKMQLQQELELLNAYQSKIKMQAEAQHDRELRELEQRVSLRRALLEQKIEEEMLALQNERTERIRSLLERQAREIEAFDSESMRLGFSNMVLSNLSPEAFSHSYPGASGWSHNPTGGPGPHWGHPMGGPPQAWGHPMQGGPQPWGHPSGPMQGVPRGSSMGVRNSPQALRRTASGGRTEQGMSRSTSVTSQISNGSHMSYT

[2] = target: TGF-beta receptor type-2 (Homo sapiens) (UniProt P37173); assay: Inhibition of human TGFBR2 at 18.6 nM by HotSpot assay relative to control
TGF-beta receptor type-2 (Homo sapiens), sequence (P37173 whole entry, canonical isoform): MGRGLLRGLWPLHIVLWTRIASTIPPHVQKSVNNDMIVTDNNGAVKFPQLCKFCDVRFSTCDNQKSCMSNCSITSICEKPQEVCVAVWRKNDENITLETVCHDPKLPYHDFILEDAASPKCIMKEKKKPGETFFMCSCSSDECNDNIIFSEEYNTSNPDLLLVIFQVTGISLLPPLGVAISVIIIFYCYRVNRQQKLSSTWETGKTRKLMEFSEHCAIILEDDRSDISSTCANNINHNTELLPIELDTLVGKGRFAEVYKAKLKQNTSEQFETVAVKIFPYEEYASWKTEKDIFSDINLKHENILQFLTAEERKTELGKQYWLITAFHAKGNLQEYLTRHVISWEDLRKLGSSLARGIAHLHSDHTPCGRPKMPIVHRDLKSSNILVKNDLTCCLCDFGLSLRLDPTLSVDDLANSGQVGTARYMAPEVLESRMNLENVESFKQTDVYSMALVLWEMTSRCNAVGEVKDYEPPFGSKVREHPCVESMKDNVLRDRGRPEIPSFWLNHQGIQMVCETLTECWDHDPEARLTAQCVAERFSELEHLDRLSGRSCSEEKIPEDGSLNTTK

[3] = target: Casein kinase I isoform gamma-1 (Homo sapiens) (UniProt Q9HCP0); assay: Inhibition of human CK1g1 at 1.82 nM by HotSpot assay relative to control
Casein kinase I isoform gamma-1 (Homo sapiens), sequence (Q9HCP0 whole entry, looked up, canonical isoform): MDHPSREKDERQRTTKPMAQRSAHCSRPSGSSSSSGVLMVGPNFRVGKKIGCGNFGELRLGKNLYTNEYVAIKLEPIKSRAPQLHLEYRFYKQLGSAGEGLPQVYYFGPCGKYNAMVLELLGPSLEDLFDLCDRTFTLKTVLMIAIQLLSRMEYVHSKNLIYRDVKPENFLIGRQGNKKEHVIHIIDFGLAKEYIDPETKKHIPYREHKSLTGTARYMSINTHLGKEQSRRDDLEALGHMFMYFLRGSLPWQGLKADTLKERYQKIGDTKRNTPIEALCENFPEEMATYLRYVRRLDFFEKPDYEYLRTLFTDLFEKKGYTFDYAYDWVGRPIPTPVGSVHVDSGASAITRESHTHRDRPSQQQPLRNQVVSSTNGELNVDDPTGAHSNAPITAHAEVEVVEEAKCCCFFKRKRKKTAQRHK

[4] = target: T2, Tyrosine-protein kinase ITK/TSK (Homo sapiens) (UniProt Q08881); assay: Inhibition of human ITK at 1.82 nM by HotSpot assay relative to control
T2 sequence (whole entry): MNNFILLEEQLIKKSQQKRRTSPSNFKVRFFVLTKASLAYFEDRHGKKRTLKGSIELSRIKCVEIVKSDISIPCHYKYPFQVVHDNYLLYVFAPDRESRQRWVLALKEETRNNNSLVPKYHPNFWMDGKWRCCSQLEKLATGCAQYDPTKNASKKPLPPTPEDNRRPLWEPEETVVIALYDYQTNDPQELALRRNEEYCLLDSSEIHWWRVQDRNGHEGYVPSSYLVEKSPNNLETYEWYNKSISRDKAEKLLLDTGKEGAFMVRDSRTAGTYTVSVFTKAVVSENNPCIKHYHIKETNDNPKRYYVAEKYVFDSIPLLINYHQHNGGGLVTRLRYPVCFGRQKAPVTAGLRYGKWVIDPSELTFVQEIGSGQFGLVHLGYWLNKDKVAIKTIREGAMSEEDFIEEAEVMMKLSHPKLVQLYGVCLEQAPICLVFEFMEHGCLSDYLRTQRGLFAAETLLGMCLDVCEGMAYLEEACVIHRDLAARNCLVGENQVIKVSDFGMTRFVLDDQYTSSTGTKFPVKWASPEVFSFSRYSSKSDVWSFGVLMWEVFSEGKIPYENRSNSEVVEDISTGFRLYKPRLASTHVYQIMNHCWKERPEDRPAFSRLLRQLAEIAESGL

[5] = target: Cyclin-dependent kinase 1/cyclin B1 (Homo sapiens) (UniProt P06493+P14635); assay: Inhibition of human CDK1/cyclin B at 1.82 nM by HotSpot assay relative to control; format: protein-complex assay
Cyclin-dependent kinase 1/cyclin B1 (Homo sapiens), sequence (P06493 whole entry, looked up): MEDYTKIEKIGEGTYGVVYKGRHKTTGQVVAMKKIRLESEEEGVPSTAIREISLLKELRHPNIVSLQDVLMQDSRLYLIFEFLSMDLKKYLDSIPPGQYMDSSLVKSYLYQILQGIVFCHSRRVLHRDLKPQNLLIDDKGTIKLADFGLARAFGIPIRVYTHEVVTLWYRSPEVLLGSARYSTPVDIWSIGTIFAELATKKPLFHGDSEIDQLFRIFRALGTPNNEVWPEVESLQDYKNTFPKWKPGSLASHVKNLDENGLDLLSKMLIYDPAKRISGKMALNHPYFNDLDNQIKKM
Cyclin-dependent kinase 1/cyclin B1 (Homo sapiens), sequence (P14635 whole entry, looked up): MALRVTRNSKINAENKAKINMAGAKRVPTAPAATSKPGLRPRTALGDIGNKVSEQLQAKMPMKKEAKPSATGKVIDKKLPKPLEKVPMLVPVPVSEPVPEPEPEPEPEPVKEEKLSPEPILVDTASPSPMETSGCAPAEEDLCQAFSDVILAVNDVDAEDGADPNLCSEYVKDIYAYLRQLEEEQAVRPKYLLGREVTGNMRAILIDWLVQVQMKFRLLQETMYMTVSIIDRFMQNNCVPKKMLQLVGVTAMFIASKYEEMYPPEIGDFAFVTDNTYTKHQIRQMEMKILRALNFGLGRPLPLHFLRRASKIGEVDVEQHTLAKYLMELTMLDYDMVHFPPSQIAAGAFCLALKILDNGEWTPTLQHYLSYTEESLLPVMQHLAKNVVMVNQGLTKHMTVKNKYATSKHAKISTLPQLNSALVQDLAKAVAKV

[6] = target: T3, Serine/threonine-protein kinase ULK2 (Homo sapiens) (UniProt Q8IYT8); assay: Inhibition of human ULK2 at 1.82 nM by HotSpot assay relative to control
T3 sequence (whole entry): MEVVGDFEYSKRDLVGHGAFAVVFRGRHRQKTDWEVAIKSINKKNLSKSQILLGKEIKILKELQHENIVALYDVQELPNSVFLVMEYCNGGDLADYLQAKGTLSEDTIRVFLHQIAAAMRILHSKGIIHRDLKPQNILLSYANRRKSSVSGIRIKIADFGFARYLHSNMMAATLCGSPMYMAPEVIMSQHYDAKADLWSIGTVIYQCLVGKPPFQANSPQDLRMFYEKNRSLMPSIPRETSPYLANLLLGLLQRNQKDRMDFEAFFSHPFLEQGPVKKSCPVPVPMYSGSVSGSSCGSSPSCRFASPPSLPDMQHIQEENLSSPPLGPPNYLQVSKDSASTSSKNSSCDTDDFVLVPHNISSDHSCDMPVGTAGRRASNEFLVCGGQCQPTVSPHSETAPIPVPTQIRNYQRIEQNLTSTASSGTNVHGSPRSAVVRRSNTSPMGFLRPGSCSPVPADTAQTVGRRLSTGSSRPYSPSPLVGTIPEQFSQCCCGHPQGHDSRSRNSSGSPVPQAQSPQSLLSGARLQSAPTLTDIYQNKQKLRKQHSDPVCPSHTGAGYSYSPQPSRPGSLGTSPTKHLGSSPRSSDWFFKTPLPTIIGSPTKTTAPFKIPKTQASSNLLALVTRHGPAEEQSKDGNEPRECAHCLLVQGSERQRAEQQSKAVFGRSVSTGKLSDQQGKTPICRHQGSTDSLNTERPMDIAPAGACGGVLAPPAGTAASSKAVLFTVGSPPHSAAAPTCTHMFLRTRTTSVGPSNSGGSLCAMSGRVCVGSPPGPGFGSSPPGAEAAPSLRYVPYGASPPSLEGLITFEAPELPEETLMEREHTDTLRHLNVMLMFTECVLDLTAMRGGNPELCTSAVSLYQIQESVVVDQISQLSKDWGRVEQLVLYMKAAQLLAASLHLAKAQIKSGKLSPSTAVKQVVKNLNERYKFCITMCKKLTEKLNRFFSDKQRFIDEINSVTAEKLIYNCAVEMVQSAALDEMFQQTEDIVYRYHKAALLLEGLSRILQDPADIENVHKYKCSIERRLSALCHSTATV

[7] = target: RAC-gamma serine/threonine-protein kinase (Homo sapiens) (UniProt Q9Y243); assay: Inhibition of human AKT3 at 1.82 nM by HotSpot assay relative to control
RAC-gamma serine/threonine-protein kinase (Homo sapiens), sequence (Q9Y243 whole entry): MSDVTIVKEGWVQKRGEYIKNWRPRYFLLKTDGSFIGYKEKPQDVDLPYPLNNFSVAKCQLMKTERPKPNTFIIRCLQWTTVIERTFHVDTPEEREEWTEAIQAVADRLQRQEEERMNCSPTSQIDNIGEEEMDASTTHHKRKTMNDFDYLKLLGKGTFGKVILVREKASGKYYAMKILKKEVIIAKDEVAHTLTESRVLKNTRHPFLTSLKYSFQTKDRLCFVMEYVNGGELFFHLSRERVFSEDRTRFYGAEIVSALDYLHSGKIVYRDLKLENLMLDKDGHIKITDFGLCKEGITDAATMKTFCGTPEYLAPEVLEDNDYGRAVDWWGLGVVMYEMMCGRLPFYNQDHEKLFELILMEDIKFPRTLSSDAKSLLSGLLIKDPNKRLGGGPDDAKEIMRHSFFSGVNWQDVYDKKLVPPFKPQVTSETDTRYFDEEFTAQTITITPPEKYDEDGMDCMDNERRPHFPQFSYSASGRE

inhibition [1] [%] | inhibition [2] [%] | inhibition [3] [%] | inhibition [4] [%] | inhibition [5] [%] | inhibition [6] [%] | inhibition [7] [%] | SMILES
0.77 | 8.98 | – | – | – | – | – | C[C@]1(O)C[C@@H](c2nc(-c3ccc4ccc(-c5ccccc5)nc4c3)c3c(N)nccn32)C1
– | – | -3.54 | -7.19 | 0.77 | -7.91 | 2.34 | C[C@@]1(C(=O)Nc2ccc(F)nc2)CCCN1c1nc(Nc2cc(C3CC3)n[nH]2)c2cccn2n1
